Measurements published in US20060088496A1, “Personal care compositions with salts of hydroxypropyl trialkylammonium substituted mono-saccharide” (Unilever Home & Personal Care USA, Division of Conopco, Inc., priority 2004, published 2006).

Test system: Porcine epidermis
Experiment: moisturization efficacy test: weight change of porcine skin with relative humidity on an environmental microbalance
Details: difference in percent weight change, treated minus untreated skin, 1% active material in water solution; for From 0 to 80 to 20% Relative Humidity: 90 minutes at 20% relative humidity after 80% (water retained); for From 0 through 80% Relative Humidity: 90 minutes at 80% relative humidity (water picked up)
Description: This Example provides the results of moisturization efficacy tests. These tests involved evaluation on Porcine epidermis utilized as a human skin model. Equipment and protocol are outlined below. An environmental microbalance (Model MB-300W, VTI Corp., 2708 W 84th Street, Hialeah, Fla. 33016) was programmed to measure the change in weight of porcine skin as a function of relative humidity at a constant temperature and air flow. The porcine skin was evaluated before and after treatment with aqueous solutions of humectants to determine adsorption and retention of moisture. Sample preparation was done as follows: • Epidermal sections of porcine skin were cut to approximately 4 cm×1 cm. • The skin was washed in a 10% detergent solution and dried in a dessicator to a constant weight. This represents the Untreated material. • The skin was soaked in a 1% by weight aqueous solution of the test sample for 15 minutes, excess fluid was blotted off and the skin was dried to constant weight in a dessicator. This represents the Treated material. Sequence of conditions for the microbalance was as follows: • 30 minutes at 0% relative humidity. (Insures that sample is dry.) • 90 minutes at 80% relative humidity. […] (Determines amount of water retained.) The experiments were conducted as follows: • The weight of a piece of untreated skin was recorded continuously during the sequence. • The piece of untreated skin was treated with the test sample. • The weight of the treated piece of skin was recorded continuously during the sequence. • Data reduction consisted of calculating the percent weight change from the initial weight for the untreated and treated pieces of skin. The reported data was the difference between each treated piece and its corresponding untreated piece.

Structure (SMILES)	From 0 to 80 to 20% Relative Humidity	From 0 through 80% Relative Humidity
C[N+](C)(C)CC(O)CCl.[Cl-] (stereo not shown) [Quat ® 188, 3-chloro-2-hydroxypropyl trimethylammonium chloride]	0.10	0.21
OCC(O)CO [Glycerin]	0.10	0.21
